Laboratory results: PMC5622107, “Small molecule inhibition of cGAS reduces interferon expression in primary macrophages from autoimmune mice” (Nature Communications, 2017)
Read-outs that look alike come from different tables or passages of the source.

Assays:
45-bp dsDNA = assay: DNA intercalation: acridine orange displacement from dsDNA by fluorescence polarization; format: binding; conditions: Supplementary Table 2; for % intercalation at 30 µM: acridine orange displacement compared to mitoxantrone; for Polarization: compound 30 µM
Protocol: Ten microliters of HEN buffer (10 mM HEPES pH 7.5, 1 mM EDTA pH 7.5, 100 mM NaCl) were dispensed per well using a Thermo Multidrop Combi dispenser (Thermo Scientific). The liquid was collected at the well bottom using centrifugation for 30 s at 180×g. […] The final concentration of compounds in the assay was 30 µM. […] The liquid was collected at the well bottom using centrifugation for 30 s at 180×g. […] The liquid was collected at the well bottom using centrifugation for 30 s at 180 × g and the plates were incubated for 30 min. Mitoxantrone, a known DNA intercalator was used at 50 µM as a positive control, while DMSO alone was used as negative control. FP was measured using a Biotek Synergy Neo plate reader. […] All FP values are expressed in millipolarization (mP) units. The mP values were calculated using the equation mP = 1000 × [(I S−I SB)−(I P−I PB)]/[I S—I SB) + (I P−I PB)], where I S and […] to the parallel and perpendicular emission intensity, respectively, and I SB and I SP corresponds to parallel emission intensity perpendicular emission intensity of the buffer, respectively. The experimental G-factor, defined as G = I S/I P, was set to 1.0 in all experiments.

mouse cGAS = molecular target: T1, mouse cGAS (Mus musculus, UniProt Q8C6L5); assay: RapidFire mass spectrometry (RF-MS) cGAS enzymatic assay, cGAMP product formation; format: biochemical; conditions: for inhibition at 12.5 µM: read-out: % inhibition at 12.5 µM; for effect of structural modification on cGAS inhibitory potency: compared with RU.365; for kcat / Km: substrate of mouse cGAS, no inhibitor; for Km: allosteric sigmoidal fitting
T1 construct: recombinant full-length mouse cGAS in reaction buffer; His6-SUMO (N, cleaved yes); made in house; host or cells: E. coli BL21(DE3) RIL
T1 sequence (Q8C6L5 whole entry): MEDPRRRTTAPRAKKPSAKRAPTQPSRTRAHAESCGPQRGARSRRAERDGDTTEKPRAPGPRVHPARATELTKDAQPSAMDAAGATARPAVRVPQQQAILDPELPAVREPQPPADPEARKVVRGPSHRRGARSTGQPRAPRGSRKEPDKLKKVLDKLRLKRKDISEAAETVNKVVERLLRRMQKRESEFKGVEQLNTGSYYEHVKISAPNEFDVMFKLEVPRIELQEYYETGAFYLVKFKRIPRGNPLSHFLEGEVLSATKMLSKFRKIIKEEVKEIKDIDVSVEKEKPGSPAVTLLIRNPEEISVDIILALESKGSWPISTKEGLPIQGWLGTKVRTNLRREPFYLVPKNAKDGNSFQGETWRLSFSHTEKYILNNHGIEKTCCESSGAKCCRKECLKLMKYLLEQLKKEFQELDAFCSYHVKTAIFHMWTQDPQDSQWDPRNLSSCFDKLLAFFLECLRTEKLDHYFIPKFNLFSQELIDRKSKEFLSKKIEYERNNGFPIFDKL
Protocol: The liquid was collected at the well bottom using centrifugation for 30 s at 180×g. […] Plates were centrifuged for 30 s at 180×g to collect all liquid at the bottom of the wells. […] The reaction was stopped by addition of 65 µl of 0.5% (v/v) formic acid per well. The plates were centrifuged for 30 s at 180×g and sealed with a Velocity11 PlateLoc thermal plate sealer.
The solvent used for loading/washing process was an aqueous solution of 5 mM ammonium acetate, pH 10. […] Each sample of approximately 35 µl were aspirated from a 384-well plate and separated using a Graphitic carbon Type D cartridge. After each sample was loaded onto the cartridge it was washed for 4 s at 1.5 ml min^−1 using the aqueous solvent. ATP, GTP and cGAMP were eluted for 5 s using the organic solvent at a flow rate of 1.5 ml min^−1. The cartridge was then re-equilibrated with the aqueous solvent for 5 s at a flow rate of 1.5 ml min^−1. All samples were analyzed using a negative ionization mode in the mass spectrometer, with a gas temperature of 350 °C, nebulizer pressure of 35 psig, gas flow rate of 15 l min^−1. […] The Agilent RapidFire Integrator software was used to calculate the area under the curve (AUC) of the extracted ion counts for each analyte. Data points represent values of product formation. Catalytic rates expressed as percent product formation were calculated using the AUC of cGAMP and using the AUC’s of ATP and GTP to normalize for variations in the capacity of the solid phase extraction column during a screening run, as shown in the following formula: product formation (%) = [(AUCcGAMP × 100)/(AUCcGAMP + ½ AUCATP + ½ AUCGTP)].
To determine the percent inhibition of mouse cGAS the data was normalized against the positive control (column 24) and negative control (column 23). […] The quality of the screen was assessed by Z′ factor[57] calculated as follows: Z′ = 1−[3∗(standard deviation positive control + standard deviation negative control)/(average positive control—average negative control)].

[1] = Supplementary Table 2, batch of compounds stored in the screening library, read-out: IC50
[2] = Supplementary Table 2, compound 12.5 µM
[3] = Supplementary Table 4, analogs of RU166365, m-cGAS inhibition, read-out: IC50
[4] = Supplementary Table 3, analogs more potent than RU166365, read-out: IC50

CCOc1ccc2nc3cc(N)ccc3c(N)c2c1 [RU1667]
% intercalation at 30 µM (45-bp dsDNA): 54.5%
Polarization (45-bp dsDNA): 139 mP
IC50 (mouse cGAS; [1]): 1.01 µM
% inhibition at 12.5 µM (mouse cGAS; [2]): 92%

COC(=O)c1ccc2c(c1)C(c1c(C)nn(-c3nc4ccccc4[nH]3)c1O)OC2=O (stereo not drawn) [RU320512]
IC50 (mouse cGAS; [3]): 8.58 µM

N=C(N)NN=C1C=CC(=NNC(N)=S)C=C1 [RU187428]
Polarization (45-bp dsDNA): 164 mP
IC50 (mouse cGAS): 9.93 µM
inhibition at 12.5 µM (mouse cGAS; [2]): 79%

Cc1nn(-c2nc3ccc(-c4ccccc4)cc3[nH]2)c(O)c1C1OC(=O)c2ccccc21 (stereo not drawn) [RU320578]
IC50 (mouse cGAS; [3]): 3.36 µM

COc1cccc2c1C(c1c(C)nn(-c3nc4ccccc4[nH]3)c1O)OC2=O (stereo not drawn) [RU320503]
IC50 (mouse cGAS; [3]): > 25 µM

CC[C@@]1(O)C[C@H](O[C@H]2C[C@H](N(C)C)[C@H](O)[C@H](C)O2)c2c(cc3c(c2O)C(=O)c2c(O)cccc2C3=O)[C@H]1C(=O)OC [RU891]
% intercalation at 30 µM (45-bp dsDNA): 90.6%
Polarization (45-bp dsDNA): 65 mP
IC50 (mouse cGAS; [1]): 1.42 µM
inhibition at 12.5 µM (mouse cGAS; [2]): 98%

CC(=O)N1CCc2c(c(C)nn2-c2nc3ccccc3[nH]2)C1c1ccccc1 (stereo not drawn) [RU320517]
IC50 (mouse cGAS; [3]): > 25 µM

Cc1nn(-c2nc3cccc(C)c3[nH]2)c(O)c1C1OC(=O)c2ccccc21 (stereo not drawn) [RU320519]
IC50 (mouse cGAS; [4]): 1.16 µM
effect of structural modification on cGAS inhibitory potency (mouse cGAS): increased inhibitory potency

O=C(O)c1cc(O)c2c(c1)[C@@H]([C@H]1c3cc(C(=O)O)cc(O)c3C(=O)c3c(O[C@H]4O[C@H](CO)[C@@H](O)[C@H](O)[C@H]4O)cccc31)c1cccc(O[C@H]3O[C@H](CO)[C@@H](O)[C@H](O)[C@H]3O)c1C2=O [RU646]
% intercalation at 30 µM (45-bp dsDNA): -13.5%
Polarization (45-bp dsDNA): 278 mP
IC50 (mouse cGAS; [1]): 8.76 µM
inhibition at 12.5 µM (mouse cGAS; [2]): 82%

Cc1nn(-c2nc3cccc(Cl)c3[nH]2)c(O)c1C1OC(=O)c2ccccc21 (stereo not drawn) [RU320520]
IC50 (mouse cGAS; [4]): 0.62 µM
effect of structural modification on cGAS inhibitory potency (mouse cGAS): increased inhibitory potency

COC(=O)c1cccc2c1C(c1c(C)nn(-c3nc4ccccc4[nH]3)c1O)OC2=O (stereo not drawn) [RU320513]
IC50 (mouse cGAS; [3]): > 25 µM

Nc1ncnc2c1ncn2[C@@H]1O[C@H](COP(=O)(O)OP(=O)(O)OP(=O)(O)O)[C@@H](O)[C@H]1O [ATP]
kcat (mouse cGAS): 0.383 s⁻¹
Km (mouse cGAS): 86 ± 6.7 µM

CC(C)c1c(C2OC(=O)c3ccccc32)c(O)nn1-c1nc2ccccc2[nH]1 (stereo not drawn) [RU320514]
IC50 (mouse cGAS; [3]): > 25 µM

Cc1nn(-c2nc3ncccc3[nH]2)c(O)c1C1OC(=O)c2ccccc21 (stereo not drawn) [RU320502]
IC50 (mouse cGAS; [3]): 11 µM

Cc1nn(-c2nc3cccc(Br)c3[nH]2)c(O)c1C1OC(=O)c2ccccc21 (stereo not drawn) [RU320467]
IC50 (mouse cGAS; [4]): 0.38 µM
effect of structural modification on cGAS inhibitory potency (mouse cGAS): increased inhibitory potency

CC(C)c1nn(-c2nc3ccccc3[nH]2)c(O)c1C1OC(=O)c2ccccc21 (stereo not drawn) [RU320515]
IC50 (mouse cGAS; [3]): 7.16 µM

Cc1nn(-c2nc3ccc(Br)cc3[nH]2)c(O)c1C1OC(=O)c2ccccc21 (stereo not drawn) [RU320462]
IC50 (mouse cGAS; [4]): 0.64 µM
effect of structural modification on cGAS inhibitory potency (mouse cGAS): increased inhibitory potency

Cc1ccc(-c2cc(O)n(-c3nc4ccccc4[nH]3)n2)cc1 [RU281319]
IC50 (mouse cGAS; [3]): > 25 µM

Cc1cc(O)n(-c2nc3ccccc3[nH]2)n1 [RU281324]
IC50 (mouse cGAS; [3]): > 25 µM

COC(=O)Cc1cccc2c1C(=O)OC2c1c(C)nn(-c2nc3ccccc3[nH]2)c1O (stereo not drawn) [RU320579]
IC50 (mouse cGAS; [3]): 2.46 µM

COc1ccc2nc(-n3nc(C)c(C4OC(=O)c5ccccc54)c3O)[nH]c2c1 (stereo not drawn) [RU320459]
IC50 (mouse cGAS; [3]): 7.34 µM

Cc1nn(-c2nc3ccccc3[nH]2)c(O)c1C1OC(=O)c2c(Br)cccc21 (stereo not drawn) [RU320463]
IC50 (mouse cGAS; [3]): 2.76 µM

Cc1nn(-c2nc3cccc(-c4ccccc4)c3[nH]2)c(O)c1C1OC(=O)c2ccccc21 (stereo not drawn) [RU320575]
IC50 (mouse cGAS; [3]): 2.35 µM

O=[N+]([O-])c1cc([As](=O)(O)O)ccc1O [RU297]
% intercalation at 30 µM (45-bp dsDNA): -9.8%
Polarization (45-bp dsDNA): 271 mP

Cc1nn(-c2nc3ccccc3[nH]2)c(O)c1C1OC(=O)c2ccc(Br)cc21 (stereo not drawn) [RU320464]
IC50 (mouse cGAS; [3]): 2.24 µM

Nc1nc2c(ncn2[C@@H]2O[C@H](COP(=O)(O)OP(=O)(O)OP(=O)(O)O)[C@@H](O)[C@H]2O)c(=O)[nH]1 [GTP]
kcat (mouse cGAS): 0.383 s⁻¹
Km (mouse cGAS): 96.4 ± 5.1 µM

Cc1nn(-c2nc3ccccc3s2)c(O)c1C1NC(=O)c2ccccc21 (stereo not drawn) [RU320466]
IC50 (mouse cGAS; [3]): > 25 µM

CC(=O)N1CCc2nn(-c3nc4ccccc4[nH]3)c(C)c2C1c1ccccc1 (stereo not drawn) [RU320518]
IC50 (mouse cGAS; [3]): > 25 µM

Cc1nn(-c2nc3ccccc3[nH]2)c(O)c1C1OC(=O)c2cc(Br)ccc21 (stereo not drawn) [RU320469]
IC50 (mouse cGAS; [4]): 1.32 µM
effect of structural modification on cGAS inhibitory potency (mouse cGAS): only minor variations in potency

Cc1nn(-c2nc3ccccc3[nH]2)c(O)c1C1OC(=O)c2cccc(C(=O)O)c21 (stereo not drawn) [RU320516]
IC50 (mouse cGAS; [3]): > 25 µM

COc1cccc2nc(-n3nc(C)c(C4OC(=O)c5ccccc54)c3O)[nH]c12 (stereo not drawn) [RU320460]
IC50 (mouse cGAS; [3]): 5.61 µM

Cc1ccc2nc(-n3nc(C)c(C4OC(=O)c5ccccc54)c3O)[nH]c2c1 (stereo not drawn) [RU320461]
IC50 (mouse cGAS; [4]): 0.86 µM
effect of structural modification on cGAS inhibitory potency (mouse cGAS): increased inhibitory potency

Cc1nn(-c2nc3ccccc3[nH]2)c(O)c1C1OC(=O)c2cccc(Br)c21 (stereo not drawn) [RU320504]
IC50 (mouse cGAS; [3]): 19.6 µM

Cc1nn(-c2nc3ccccc3[nH]2)c(O)c1C1NC(=O)c2ccccc21 (stereo not drawn) [RU320465]
IC50 (mouse cGAS; [3]): > 25 µM
effect of structural modification on cGAS inhibitory potency (mouse cGAS): abolished inhibitory activity

Cc1nn(-c2ncc(-c3ccccc3)[nH]2)c(O)c1C1OC(=O)c2ccccc21 (stereo not drawn) [RU320574]
IC50 (mouse cGAS; [3]): > 25 µM

COC(=O)C1=C(C)NC(C)=C(C(=O)OC)C1c1ccccc1[N+](=O)[O-] [RU199]
IC50 (mouse cGAS; [1]): 0.8 µM
inhibition at 12.5 µM (mouse cGAS; [2]): 91%

CCCc1c(C)nn(-c2nc3ccccc3[nH]2)c1O [RU166418]
IC50 (mouse cGAS; [3]): > 25 µM

CC(C)c1ccc2oc3nc(N)c(C(=O)O)cc3c(=O)c2c1 [RU185491]
% intercalation at 30 µM (45-bp dsDNA): 1.5%
Polarization (45-bp dsDNA): 248 mP

COc1ccc2c(c1)C(=O)OC2c1c(C)nn(-c2nc3ccccc3[nH]2)c1O (stereo not drawn) [RU320468]
IC50 (mouse cGAS; [4]): 1.43 µM
effect of structural modification on cGAS inhibitory potency (mouse cGAS): only minor variations in potency

Cc1nn(-c2nc3ccc(C(=O)O)cc3[nH]2)c(O)c1C1OC(=O)c2ccccc21 (stereo not drawn) [RU320577]
IC50 (mouse cGAS; [3]): 18 µM

COC(=O)c1cccc2c1C(=O)OC2c1c(C)nn(-c2nc3ccccc3[nH]2)c1O (stereo not drawn) [RU320511]
IC50 (mouse cGAS; [3]): 6.84 µM

Cc1nn(-c2nc3cccc(C(F)(F)F)c3[nH]2)c(O)c1C1OC(=O)c2ccccc21 (stereo not drawn) [RU320581]
IC50 (mouse cGAS; [3]): 3.3 µM

Cc1nn(-c2nc3cc(Cl)cc(Cl)c3[nH]2)c(O)c1C1OC(=O)c2ccccc21 (stereo not drawn) [RU320582]
IC50 (mouse cGAS; [4]): 0.12 µM
effect of structural modification on cGAS inhibitory potency (mouse cGAS): increased inhibitory potency
improvement in potency (mouse cGAS; relative to RU.365): 17 fold
